Experimental data from patent US10131652B2, “Pyrimidinyloxy benzene derivatives as herbicides” (E. I. DU PONT DE NEMOURS AND COMPANY, priority 2014, dated 2018).

Key:
Experiment in all cases: Test D pre-/postemergence plant response
Type in all cases: in vivo
[1] = system: Italian ryegrass (Lolium multiflorum)
Procedure, shortened: (§1)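 Ratings were visual, 0 = no effect to 100 = complete control, taken against untreated controls after 13 to 15 days in a greenhouse. Chemicals, formulated in non-phytotoxic surfactant-containing solvent, went onto soil (loam/sand) at planting for preemergence, or onto 1- to 4-leaf plants (2–18 cm) for postemergence.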

[2] = system: barnyardgrass (Echinochloa crus-galli)
Procedure, shortened: as §1

[3] = system: blackgrass (Alopecurus myosuroides)
Procedure, shortened: as §1

corn (Zea mays) = system: corn (Zea mays)
Procedure, shortened: as §1

[4] = system: galium (catchweed bedstraw, Galium aparine)
Procedure, shortened: as §1

[5] = system: giant foxtail (Setaria faberii)
Procedure, shortened: as §1

[6] = system: johnsongrass (Sorghum halepense)
Procedure, shortened: as §1

[7] = system: lambsquarters (Chenopodium album)
Procedure, shortened: as §1

[8] = system: large (Lg) crabgrass (Digitaria sanguinalis)
Procedure, shortened: as §1

[9] = system: morningglory (Ipomoea coccinea)
Procedure, shortened: as §1

[10] = system: oilseed rape (Brassica napus)
Procedure, shortened: as §1

[11] = system: pigweed (Amaranthus retroflexus)
Procedure, shortened: as §1

[12] = system: ragweed (common ragweed, Ambrosia elatior)
Procedure, shortened: as §1

soybean (Glycine max) = system: soybean (Glycine max)
Procedure, shortened: as §1

[13] = system: velvetleaf (Abutilon theophrasti)
Procedure, shortened: as §1

[14] = system: waterhemp (common waterhemp, Amaranthus rudis)
Procedure, shortened: as §1

[15] = system: winter wheat (Triticum aestivum)
Procedure, shortened: as §1

[16] = system: yellow nutsedge (Cyperus esculentus); details: Preemergence; for Plant response rating, Nutsedge, Yellow: scale 0 to 100 (0 no effect, 100 complete control)
Procedure, shortened: as §1

[17] = Postemergence, 16 g ai/ha, scale 0 to 100 (0 no effect, 100 complete control)
[18] = Postemergence, 31 g ai/ha, scale 0 to 100 (0 no effect, 100 complete control)
[19] = Postemergence, 62 g ai/ha, scale 0 to 100, 0 no effect, 100 complete control
[20] = Postemergence, 125 g ai/ha, scale 0 to 100, 0 no effect, 100 complete control
[21] = Preemergence, 16 g ai/ha, scale 0 to 100 (0 no effect, 100 complete control)
[22] = Preemergence, 31 g ai/ha, scale 0 to 100 (0 no effect, 100 complete control)
[23] = Preemergence, 62 g ai/ha, scale 0 to 100 (0 no effect, 100 complete control)

FC(F)(F)c1cc(-c2ccccc2Oc2ncc(Cl)cn2)ncn1 [Compound 54]
Ryegrass, Italian plant response rating [1, 17]: 0 | Ryegrass, Italian plant response rating [1, 18]: 0 | Plant response rating, Ryegrass, Italian [1, 19]: 0 | Plant response rating, Ryegrass, Italian [1, 20]: 0 | Plant response rating (scale 0 to 100), Ryegrass, Italian ([1]; Preemergence, 125 g ai/ha): 30 | Plant response rating, Ryegrass, Italian [1, 21]: 0 | Plant response rating, Ryegrass, Italian [1, 22]: 5 | Plant response rating, Ryegrass, Italian [1, 23]: 5 | Barnyardgrass plant response rating [2, 17]: 0 | Barnyardgrass plant response rating [2, 18]: 5 | Plant response rating, Barnyardgrass [2, 19]: 5 | Plant response rating, Barnyardgrass [2, 20]: 10 | Plant response rating (scale 0 to 100), Barnyardgrass ([2]; Preemergence, 62 g ai/ha): 10 | Plant response rating (scale 0 to 100), Barnyardgrass ([2]; Preemergence, 125 g ai/ha): 95 | Plant response rating, Barnyardgrass [2, 21]: 0 | Plant response rating, Barnyardgrass [2, 22]: 5 | Blackgrass plant response rating [3, 17]: 0 | Blackgrass plant response rating [3, 18]: 5 | Plant response rating, Blackgrass [3, 19]: 5 | Plant response rating, Blackgrass [3, 20]: 5 | Plant response rating (scale 0 to 100), Blackgrass ([3]; Preemergence, 125 g ai/ha): 70 | Plant response rating, Blackgrass [3, 21]: 5 | Plant response rating, Blackgrass [3, 22]: 5 | Plant response rating, Blackgrass [3, 23]: 40 | Corn plant response rating (corn (Zea mays); [17]): 0 | Corn plant response rating (corn (Zea mays); [18]): 0 | Plant response rating, Corn (corn (Zea mays); [19]): 5 | Plant response rating, Corn (corn (Zea mays); [20]): 5 | Plant response rating (scale 0 to 100), Corn (corn (Zea mays); Preemergence, 125 g ai/ha): 0 | Plant response rating, Corn (corn (Zea mays); [21]): 0 | Plant response rating, Corn (corn (Zea mays); [22]): 0 | Plant response rating, Corn (corn (Zea mays); [23]): 0 | Galium plant response rating [4, 17]: 50 | Galium plant response rating [4, 18]: 55 | Plant response rating, Galium [4, 19]: 55 | Plant response rating, Galium [4, 20]: 75 | Plant response rating (scale 0 to 100), Galium ([4]; Preemergence, 125 g ai/ha): 85 | Plant response rating, Galium [4, 21]: 50 | Plant response rating, Galium [4, 22]: 85 | Plant response rating, Galium [4, 23]: 60 | Foxtail, Giant plant response rating [5, 17]: 0 | Foxtail, Giant plant response rating [5, 18]: 30 | Plant response rating, Foxtail, Giant [5, 19]: 10 | Plant response rating, Foxtail, Giant [5, 20]: 50 | Plant response rating (scale 0 to 100), Foxtail, Giant ([5]; Preemergence, 125 g ai/ha): 95 | Plant response rating, Foxtail, Giant [5, 21]: 0 | Plant response rating, Foxtail, Giant [5, 22]: 10 | Plant response rating, Foxtail, Giant [5, 23]: 95 | Johnsongrass plant response rating [6, 17]: 0 | Johnsongrass plant response rating [6, 18]: 0 | Plant response rating, Johnsongrass [6, 19]: 5 | Plant response rating, Johnsongrass [6, 20]: 5 | Plant response rating (scale 0 to 100), Johnsongrass ([6]; Preemergence, 125 g ai/ha): 40 | Plant response rating, Johnsongrass [6, 21]: 0 | Plant response rating, Johnsongrass [6, 22]: 0 | Plant response rating, Johnsongrass [6, 23]: 10 | Lambsquarters plant response rating [7, 17]: 0 | Lambsquarters plant response rating [7, 18]: 5 | Plant response rating, Lambsquarters [7, 19]: 5 | Plant response rating, Lambsquarters [7, 20]: 70 | Plant response rating (scale 0 to 100), Lambsquarters ([7]; Preemergence, 125 g ai/ha): 85 | Plant response rating, Lambsquarters [7, 21]: 5 | Plant response rating, Lambsquarters [7, 22]: 60 | Plant response rating, Lambsquarters [7, 23]: 85 | Crabgrass, Large plant response rating [8, 17]: 5 | Crabgrass, Large plant response rating [8, 18]: 5 | Plant response rating, Crabgrass, Large [8, 19]: 5 | Plant response rating, Crabgrass, Large [8, 20]: 5 | Plant response rating (scale 0 to 100), Crabgrass, Large ([8]; Preemergence, 125 g ai/ha): 100 | Plant response rating, Crabgrass, Large [8, 21]: 10 | Plant response rating, Crabgrass, Large [8, 22]: 75 | Plant response rating, Crabgrass, Large [8, 23]: 90 | Morningglory plant response rating [9, 17]: 5 | Morningglory plant response rating [9, 18]: 75 | Plant response rating, Morningglory [9, 19]: 75 | Plant response rating, Morningglory [9, 20]: 85 | Plant response rating (scale 0 to 100), Morningglory ([9]; Preemergence, 125 g ai/ha): 15 | Plant response rating, Morningglory [9, 21]: 0 | Plant response rating, Morningglory [9, 22]: 0 | Plant response rating, Morningglory [9, 23]: 5 | Oilseed Rape plant response rating [10, 17]: 5 | Oilseed Rape plant response rating [10, 18]: 20 | Plant response rating, Oilseed Rape [10, 19]: 50 | Plant response rating, Oilseed Rape [10, 20]: 60 | Plant response rating (scale 0 to 100), Oilseed Rape ([10]; Preemergence, 125 g ai/ha): 100 | Plant response rating, Oilseed Rape [10, 21]: 60 | Plant response rating, Oilseed Rape [10, 22]: 85 | Plant response rating, Oilseed Rape [10, 23]: 100 | Pigweed plant response rating [11, 17]: 60 | Pigweed plant response rating [11, 18]: 80 | Plant response rating, Pigweed [11, 19]: 80 | Plant response rating, Pigweed [11, 20]: 60 | Plant response rating (scale 0 to 100), Pigweed ([11]; Preemergence, 125 g ai/ha): 100 | Plant response rating, Pigweed [11, 21]: 5 | Plant response rating, Pigweed [11, 22]: 100 | Plant response rating, Pigweed [11, 23]: 100 | Ragweed plant response rating [12, 17]: 0 | Ragweed plant response rating [12, 18]: 0 | Plant response rating, Ragweed [12, 19]: 5 | Plant response rating, Ragweed [12, 20]: 35 | Plant response rating (scale 0 to 100), Ragweed ([12]; Preemergence, 125 g ai/ha): 35 | Plant response rating, Ragweed [12, 21]: 10 | Plant response rating, Ragweed [12, 22]: 40 | Plant response rating, Ragweed [12, 23]: 10 | Soybean plant response rating (soybean (Glycine max); [17]): 15 | Soybean plant response rating (soybean (Glycine max); [18]): 10 | Plant response rating, Soybean (soybean (Glycine max); [19]): 50 | Plant response rating, Soybean (soybean (Glycine max); [20]): 80 | Plant response rating (scale 0 to 100), Soybean (soybean (Glycine max); Preemergence, 125 g ai/ha): 20 | Plant response rating, Soybean (soybean (Glycine max); [21]): 0 | Plant response rating, Soybean (soybean (Glycine max); [22]): 10 | Plant response rating, Soybean (soybean (Glycine max); [23]): 20 | Velvetleaf plant response rating [13, 17]: 0 | Velvetleaf plant response rating [13, 18]: 5 | Plant response rating, Velvetleaf [13, 19]: 40 | Plant response rating, Velvetleaf [13, 20]: 40 | Plant response rating (scale 0 to 100), Velvetleaf ([13]; Preemergence, 125 g ai/ha): 100 | Plant response rating, Velvetleaf [13, 21]: 15 | Plant response rating, Velvetleaf [13, 22]: 70 | Plant response rating, Velvetleaf [13, 23]: 85 | Waterhemp plant response rating [14, 17]: 45 | Waterhemp plant response rating [14, 18]: 60 | Plant response rating, Waterhemp [14, 19]: 80 | Plant response rating, Waterhemp [14, 20]: 75 | Plant response rating (scale 0 to 100), Waterhemp ([14]; Preemergence, 125 g ai/ha): 100 | Plant response rating, Waterhemp [14, 21]: 25 | Plant response rating, Waterhemp [14, 22]: 85 | Plant response rating, Waterhemp [14, 23]: 100 | Wheat plant response rating [15, 17]: 0 | Wheat plant response rating [15, 18]: 0 | Plant response rating, Wheat [15, 19]: 0 | Plant response rating, Wheat [15, 20]: 5 | Plant response rating (scale 0 to 100), Wheat ([15]; Preemergence, 125 g ai/ha): 0 | Plant response rating, Wheat [15, 21]: 0 | Plant response rating, Wheat [15, 22]: 0 | Plant response rating, Wheat [15, 23]: 0 | Plant response rating (scale 0 to 100), Nutsedge, Yellow ([16]; 125 g ai/ha): 15 | Plant response rating, Nutsedge, Yellow ([16]; 16 g ai/ha): 0 | Plant response rating, Nutsedge, Yellow ([16]; 31 g ai/ha): 0 | Plant response rating, Nutsedge, Yellow ([16]; 62 g ai/ha): 0
